Measurements reported in US5994336A, “Method of inhibiting proliferation of cells by administering an aminosterol compound” (priority 1995, dated 1999).
Entries after “also recorded” stand apart in the source; their conditions may differ.

Legend:
[1] = tested on: Xenopus tadpole, stage 59-60; assay: Tadpole assay; assay type: in vivo, Xenopus laevis; conditions: 10 μg/ml; for pharmacological response in tadpole (words): stage 59-60
Text: For example, substances that destroy all of the animal's epithelium, both adult and embryonic, could be regarded as toxic.
The volume of liquid is sufficient for the animal to swim freely and drink from the solution. […] If the volume of liquid is not sufficient to permit oral intake, the effects that are observed would result from absorption through the surface epithelium.
In another embodiment of this assay, a solution of a compound in water can be injected directly into the abdomen of the animal using standard techniques.
After an amount of time, typically about 60 minutes, the occlusion of blood flow through capillaries in the tadpole's tail are observed under an inverted microscope at a magnification of roughly 100×.
In the assay, each of the steroids was dissolved in 100 ml of distilled water at a concentration of 10 μg/ml. Stage 59-60 Xenopus tadpoles were introduced and evaluated by light microscopy and gross observation 1 hour later.

vitelline capillaries = assay: Chick embryo vitelline capillary regression assay; assay type: in vivo
Experimental: Using the chick embryo vitelline capillaries assay, compounds were tested for their ability to induce capillary regression. Each compound was applied in 0.1 ml of 15% Ficol 400 and PBS onto the embryo, and vascular regression was assessed after 60 minutes.
The 3-day chick embryo consists of an embryonic disc from which numerous vessels emerge and return, forming a "FIG. 8"-shaped structure--the embryo in the center with vascular loops extending outward over both poles. […] Following a lag period of around 15 minutes, the constriction of continuity between capillary and secondary vessels, generally on the "venous" side, was observed. Continued pulsatile blood flow progressed, resulting in a "swelling" of the blind tube, followed by a pinching off of the remaining connection and formation of an enclosed vascular sac resembling a "blood island." This process progressed until only the largest vessels remained intact.

human melanoma = assay: Effect on growth of human melanoma (method of Baker et al.); assay type: cell-based; conditions: FIG. 17A
[2] = Effect on fasting blood glucose in mice; assay type: in vivo, mouse; conditions: i.v.
Experimental: To study the effect of steroid administrator or the NHE responsible for secretion of insulin, several of the aminosterols from shark liver were administered to fasting mice. Male CD-1 mice were assigned to one of four treatment groups. Whole blood glucose was tested using glucometer (Lifescan Glucometer II and One Touch test strips). Statistical analysis was via one-way analysis of variance (ANOVA) followed by subsequent Bonferonni's t-test.

[3] = Effect on arterial resistance in the rat after i.v. administration; assay type: in vivo
Experimental: A 200-g rat was catheterized in the right carotid artery, and the compound was introduced over a ten-second period to a total dosage of 5 mg/kg. Within 30 seconds, the mean arterial pressure had fallen from about 100 mm Hg to about 70 mm Hg, with a marked reduction in pulse pressure from about 40 mm to about 10 mm. […] If cardiac output was basically unaffected, reduction in blood pressure would have resulted principally from a reduction in system resistance.
At that time, 40 μg of noradrenaline was introduced.

[4] = tested on: Human ovarian carcinoma SKOV3; assay: Growth inhibition in vitro (Table 7); assay type: cell-based; conditions: 10 μg/ml
Experimental: (§1) As set forth in Table 7 below, all malignant tumors evaluated in tissue culture, endothelial cells and vascular smooth muscle cells were sensitive to inhibition. Thus, compound 1436 has application in the control of growth factor dependent proliferation of many types of tissue.
Using the assay described above, the anticancer effects of compound 1437 against several cancer lines was assessed.

B16 melanoma = assay: Synergistic inhibition of tumor growth, B16 melanoma model; assay type: in vivo, mouse
Experimental: Based on the idea that tumor growth involves both the clonal expansion of a malignant cell along with the development of a supporting vascular supply, a combination of compound 1436 with squalamine was tested to determine whether it would achieve a synergistic effect on solid tumor growth. This concept was evaluated in the B16 melanoma model.
Animals were implanted with B16 melanoma followed by treatment with compound 1436 or 1256 administered in a combined schedule or separately. […] Thus, a combination of these two compounds achieves a therapeutic benefit in tumors dependent on neovascularization that may prevent metastatic spread.

[5] = tested on: human coronary artery smooth muscle; assay: Proliferation of human coronary artery smooth muscle in vitro; assay type: cell-based
Text: Aminosterols of the invention may also have utility in inhibiting the growth factor mediated proliferation of smooth muscle within the artery. Following coronary angioplasty, reocclusion commonly occurs, secondary to reparative proliferation of the vascular smooth muscle within the wall of the surgically manipulated blood vessel. This process generally takes place over the course of 7-10 days. To evaluate whether an agent could prevent the growth factor mediated proliferation of smooth muscle within the artery, compound 1436 was evaluated in vitro for its effect on the proliferation of human coronary artery smooth muscle. Results for compound 1436 are shown in FIG. 13, and those for squalamine are shown in FIG. 14, with FIG. 15 being a composite logarithmic plot.

rabbit NHE3 = molecular target: T1, rabbit NHE3 (Oryctolagus cuniculus, UniProt P26432); assay type: cell-based; conditions: 10 μg/ml, acid preloaded; FIG. 10
T1 construct: BCECF internal pH recovery

[6] = tested on: L1210 lymphoblastic leukemia; assay: Survival of mice bearing L1210 leukemia
[7] = tested on: PHA-stimulated human lymphocytes; assay: Inhibition of mitogen (PHA)-stimulated growth of human T-cells; assay type: cell-based
Text: Results are tabulated below.

[8] = tested on: Human microvascular endothelial cells; assay: Growth inhibition in vitro (Table 7); assay type: cell-based; conditions: 10 μg/ml
Text: as §1

Murine L1210 leukemia = assay: Growth inhibition in vitro (Table 7); assay type: cell-based; conditions: 10 μg/ml
Text: as §1

[9] = tested on: bovine pulmonary endothelial cells; assay: Growth inhibition in vitro (Table 7); assay type: cell-based; conditions: 10 μg/ml
Text: as §1

[10] = tested on: Human coronary artery smooth muscle cells; assay: Growth inhibition in vitro (Table 7); assay type: cell-based; conditions: 10 μg/ml
Text: as §1

Human melanoma WM 1617 = assay: Growth inhibition in vitro (Table 7); assay type: cell-based; conditions: 10 μg/ml
Text: as §1

Lewis lung carcinoma = assay: Growth inhibition in vitro (Table 7); assay type: cell-based; conditions: 10 μg/ml
Text: as §1

[11] = tested on: Human colon carcinoma HT29; assay: Growth inhibition in vitro (Table 7); assay type: cell-based; conditions: 10 μg/ml
Text: as §1

[12] = tested on: human umbilical venous endothelial cells; assay: Growth inhibition in vitro (Table 7); assay type: cell-based; conditions: 10 μg/ml
Text: as §1

Murine B16 melanoma = assay: Growth inhibition in vitro (Table 7); assay type: cell-based; conditions: 10 μg/ml
Text: as §1

[13] = tested on: Human colon carcinoma SW948; assay: Growth inhibition in vitro (Table 7); assay type: cell-based; conditions: 10 μg/ml
Text: as §1

[14] = Effect on growth and weight gain of C57B mice; assay type: in vivo, mouse
Experimental: Animals were dosed QTD (i.p.) starting on Day 1. […] Animals receiving 5 mg/kg QTD experienced about a 50% reduction in growth, compared to untreated controls, while animals receiving 1 mg/kg QTD were affected by about 10%. […] They appeared very much like hypophysectamized animals might appear.

[15] = tested on: heart of a juvenile Xenopus laevis frog; assay: Persistence of beating of isolated frog heart (ischemia); conditions: 10 μg/ml, adrenaline 50 μg/ml, room temperature; about one hour without compound
Experimental: To determine if compound 1436 has such utility, the following experiment was performed. The heart of a juvenile Xenopus laevis frog was dissected from the living animal. The heart was placed into a Petri dish containing Krebs-Ringer buffer with adrenaline 50 μg/ml, and examined with the naked eye. At room temperature, the heart continued beating in a coordinated fashion (atrial beat followed by ventricular beat) for about one hour. In the presence of 10 μg/ml of compound 1436, spontaneous beating persisted up to 24 hours.

Chemical stability = assay type: physicochemical

T1 sequence (P26432 30-832): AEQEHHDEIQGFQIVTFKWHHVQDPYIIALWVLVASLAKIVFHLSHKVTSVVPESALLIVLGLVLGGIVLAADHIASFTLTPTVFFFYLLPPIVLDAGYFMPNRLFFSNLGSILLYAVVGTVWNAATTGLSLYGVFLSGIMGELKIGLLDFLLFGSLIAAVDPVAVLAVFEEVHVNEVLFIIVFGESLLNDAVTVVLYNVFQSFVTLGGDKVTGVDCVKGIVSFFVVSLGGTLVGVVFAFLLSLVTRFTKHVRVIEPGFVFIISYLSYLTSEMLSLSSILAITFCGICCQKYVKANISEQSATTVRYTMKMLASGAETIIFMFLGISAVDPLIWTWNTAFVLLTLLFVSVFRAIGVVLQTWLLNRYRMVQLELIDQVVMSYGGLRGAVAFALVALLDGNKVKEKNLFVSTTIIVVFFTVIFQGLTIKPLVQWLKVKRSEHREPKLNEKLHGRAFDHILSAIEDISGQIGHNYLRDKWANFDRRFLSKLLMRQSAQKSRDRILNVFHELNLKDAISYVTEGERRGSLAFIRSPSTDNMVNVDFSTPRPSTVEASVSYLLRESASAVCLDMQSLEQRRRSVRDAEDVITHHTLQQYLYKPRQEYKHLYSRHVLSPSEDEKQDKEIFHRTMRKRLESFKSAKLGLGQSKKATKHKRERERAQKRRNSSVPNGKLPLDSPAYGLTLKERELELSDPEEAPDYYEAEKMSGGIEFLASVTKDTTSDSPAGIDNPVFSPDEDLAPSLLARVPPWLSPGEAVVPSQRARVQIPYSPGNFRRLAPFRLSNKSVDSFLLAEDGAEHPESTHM

CC(C)CCC[C@@H](C)[C@H]1CC[C@H]2[C@@H]3CC[C@H]4C[C@@H](NCCCNCCCCNCCCN)CC[C@]4(C)[C@H]3CC[C@]12C [Compound 353]
pharmacological response in tadpole (words) [1]: effects like those produced by compound 1436
activity on vitelline capillaries (vitelline capillaries): no effect on the chick embryo capillary bed
time course of effect on growth of melanoma (human melanoma): most pronounced over 48 hours, with less of an effect noted within the first 12 hours of incubation

CC(C)[C@@H](CC[C@@H](C)[C@H]1CC[C@H]2[C@@H]3[C@H](O)C[C@H]4C[C@@H](NCCCNCCCCNCCCN)CC[C@]4(C)[C@H]3CC[C@]12C)OS(=O)(=O)O [Compound 1436]
blood glucose effect [2]: caused hyperglycemia in mice
reversibility ([3]; 40 μg noradrenaline at 30 minutes): readily reversible
pulse pressure after dose ([3]; 5 mg/kg i.v., within 30 seconds, from about 40 mm): about 10 mm
mean arterial pressure after dose ([3]; 5 mg/kg i.v., within 30 seconds, from about 100 mm Hg): about 70 mm Hg
persistence of pressure effect ([3]; followed for 30 minutes): without significant change
inhibition in vitro [4]: INHIBITED
tissues or functions not affected in tadpole [1]: No effects are observed on epithelial cell integrity, vascular flow, erythrocyte volume, tissue integrity, muscle fiber striation, or GI tract activity
pharmacological response in tadpole (words) [1]: Gradual reduction in overall activity. Heart beat remained strong, suggesting nervous system depression. Melanocytes over head and tail began to swell, first exhibiting visibly distinct nuclei, followed by rupture into fragments
pharmacological response in tadpole (words) ([1]; listed as compound 1436): common vascular occlusive effect; also recorded: dramatic disruption of melanocytes over its head, trunk, and tail, along with depression of its nervous system
effect compared with combination (B16 melanoma; compound 1436 alone in a tolerable schedule): Neither administration of squalamine at 15 mg/kg/day nor compound 1436 alone in a tolerable schedule could achieve this effect
impact on tumor volume (B16 melanoma; compound 1436 alone, 10 mg/kg/every 3 days, FIG. 12): no significant impact on tumor volume
suppression of growth in vitro ([5]; FIG. 15): suppress in vitro the growth of human coronary artery smooth muscle
viability at quiescent concentration ([5]; about 11 μg/ml): without loss of viability
activity on vitelline capillaries (vitelline capillaries): causes vitelline capillary regression with about the same potency as squalamine
inhibition of rabbit NHE3 (rabbit NHE3): found to inhibit rabbit NHE3
survival ([6]; highest dose, 10 mg/kg every 3 days i.p., FIG. 11): significant prolongation of life
toxicity in leukemic mice ([6]; mouse, in vivo): without unfavorable toxicity
inhibition of blast transformation [7]: inhibited blast transformation most potently
inhibition in vitro [8]: INHIBITED
inhibition in vitro (Murine L1210 leukemia): INHIBITED
inhibition in vitro [9]: INHIBITED
inhibition in vitro [10]: INHIBITED
inhibition in vitro (Human melanoma WM 1617): INHIBITED
inhibition in vitro (Lewis lung carcinoma): INHIBITED
inhibition in vitro [11]: INHIBITED
inhibition in vitro [12]: INHIBITED
inhibition in vitro (Murine B16 melanoma): INHIBITED
inhibition in vitro [13]: INHIBITED
reduction in growth ([14]; 5 mg/kg QTD i.p., compared to untreated controls): ~50%
reduction in growth ([14]; 10 mg/kg QTD i.p.): almost completely inhibited
apparent health of treated animals ([14]; i.p.): all were active, normally proportioned, not-cachectic, and in excellent apparent clinical health
persistence of spontaneous beating [15]: up to 24 hours

CC(CCC(=O)C(C)(C)OS(=O)(=O)O)[C@H]1CCC2C3C(CC[C@@]21C)[C@@]1(C)CC[C@H](NCCCNCCCCN)C[C@@H]1C[C@H]3O (stereo partly drawn) [FX1A]
stability in water (Chemical stability): undergo conversion to another molecule (FX 1B) rapidly in water
